Measured values: ChEMBL document CHEMBL4602730, “In Vitro and in Vivo Evaluation of Membrane-Active Flavone Amphiphiles: Semisynthetic Kaempferol-Derived Antimicrobials against Drug-Resistant Gram-Positive Bacteria” (J Med Chem, 2020)
Values after ≈ are worked out from the molar mass of the structure shown. Active and inactive are the calls of the source. The rule behind the calls is not given here.

What was measured:
Staphylococcus aureus [1] = assay: Antibacterial activity against Staphylococcus aureus ATCC 29213 assessed as inhibition of bacterial growth incubated for 24 hrs by broth microdilution method; assay type: functional; conditions: ATCC 29213, 24 h
Staphylococcus aureus [2] = assay: Antibacterial activity against methicillin-resistant Staphylococcus aureus N315 assessed as inhibition of bacterial growth incubated for 24 hrs by broth microdilution method; assay type: functional; conditions: N315, 24 h
Staphylococcus aureus [3] = assay: Antibacterial activity against Staphylococcus aureus ATCC 29213 assessed as induction of bacterial killing at 4 times MIC incubated for 8 hrs followed by re-plating of cultures and measured after 24 hrs by time kill study relative to control; assay type: functional
Staphylococcus aureus [4] = assay: Antibacterial activity against methicillin-resistant Staphylococcus aureus NCTC 10442 assessed as inhibition of bacterial growth incubated for 24 hrs by broth microdilution method; assay type: functional; conditions: NCTC 10442, 24 h
[5] = Induction of hemolysis in rabbit RBC incubated for 1 hr; assay type: cell-based, Oryctolagus cuniculus, Erythrocyte; conditions: rabbit red blood cells (erythrocytes)
Staphylococcus aureus [6] = assay: Induction of cytoplasmic membrane permeabilization in Staphylococcus aureus ATCC 29213 at 1 to 8 times MIC by SYTOX green dye based fluorescence assay; assay type: functional, organism-based
Staphylococcus aureus [7] = assay: Antibacterial activity against Staphylococcus aureus ATCC 29213 assessed as induction of bacterial killing at 4 times MIC incubated for 1 hrs followed by re-plating of cultures and measured after 24 hrs by time kill study relative to control; assay type: functional
Staphylococcus aureus [8] = assay: Induction of cytoplasmic membrane permeabilization in methicillin-resistant Staphylococcus aureus NCTC 10442 at 1 to 8 times MIC by SYTOX green dye based fluorescence assay; assay type: functional, organism-based
Pseudomonas aeruginosa = assay: Antibacterial activity against Pseudomonas aeruginosa assessed as inhibition of bacterial growth incubated for 24 hrs by broth microdilution method; assay type: functional
Staphylococcus aureus [9] = assay: Antibacterial activity against Staphylococcus aureus ATCC 29213 assessed as suppression of bacterial re-growth at 4 to 8 times MIC incubated for 0.5 to 24 hrs followed by re-plating of cultures and measured after 24 hrs by time kill study relative to control; assay type: functional, organism-based
[10] = Cytotoxicity in human MDA-MB-231 cells assessed as cell viability at 32 times MIC incubated for 24 hrs by CCK8 assay relative to control; assay type: cell-based; conditions: read-out: Activity
Staphylococcus aureus [11] = assay: Antibacterial activity against Staphylococcus aureus ATCC 29213 assessed as bacterial cell killing at 4 times MIC incubated for 1 hrs followed by re-plating of cultures and measured after 24 hrs by time kill study relative to control; assay type: functional
Staphylococcus aureus [12] = assay: Antibacterial activity against Staphylococcus aureus ATCC 29213 assessed as induction of bacterial killing at 8 times MIC incubated for 0.5 hrs followed by re-plating of cultures and measured after 24 hrs by time kill study relative to control; assay type: functional
Escherichia coli = assay: Antibacterial activity against Escherichia coli assessed as inhibition of bacterial growth incubated for 24 hrs by broth microdilution method; assay type: functional
Staphylococcus aureus [13] = assay: Induction of cell surface disruption in Staphylococcus aureus ATCC 29213 at 8 times MIC incubated for 2 hrs by scanning electron microscopy; assay type: functional, organism-based
Staphylococcus aureus [14] = assay: Induction of bacterial cell membrane integrity loss in Staphylococcus aureus ATCC 29213 incubated for 2 hrs propidium iodide and SYTO9 dye based LIVE/DEAD bacterial viability assay; assay type: functional, organism-based
[15] = Cytotoxicity in mouse corneal epithelial cells assessed as cell viability at 32 times MIC incubated for 24 hrs by CCK8 assay relative to control; assay type: cell-based; conditions: read-out: Activity
Staphylococcus aureus [16] = assay: Resistance index, ratio of MIC for antibacterial activity against Staphylococcus aureus ATCC 29213 passed over 19 cycles in presence of compound for period of 19 consecutive days by broth microdilution method to MIC for antibacterial activity against Staphylococcus aureus ATCC 29213; assay type: functional
Staphylococcus aureus [17] = assay: Antibacterial activity against Staphylococcus aureus ATCC 29213 infected in C57BL6 mouse assessed as reduction in bacterial count at 0.5% treated topically 4 times per day for 3 days starting from 1 day after infection relative to control; assay type: functional
[18] = Cytotoxicity in human MDA-MB-231 cells assessed as reduction in cell viability incubated for 24 hrs by CCK8 assay; assay type: cell-based
[19] = Cytotoxicity in mouse corneal epithelial cells assessed as cell viability at 16 times MIC incubated for 24 hrs by CCK8 assay relative to control; assay type: cell-based; conditions: read-out: Activity
[20] = Cytotoxicity in human MDA-MB-231 cells assessed as cell viability at 16 times MIC incubated for 24 hrs by CCK8 assay relative to control; assay type: cell-based; conditions: read-out: Activity

SMILES | MIC (Staphylococcus aureus [1]) | MIC (Staphylococcus aureus [2]) | MIC (Staphylococcus aureus [4]) | HC50 at 1 h [5] | Activity (Staphylococcus aureus [6]) | LCK (Staphylococcus aureus [7]) | Activity (Staphylococcus aureus [8]) | MIC (Pseudomonas aeruginosa) | Activity (Staphylococcus aureus [9]) | Activity (Staphylococcus aureus [11]) | LCK (Staphylococcus aureus [12]) | MIC (Escherichia coli) | Activity (Staphylococcus aureus [13]) | Activity (Staphylococcus aureus [14]) | Ratio (Staphylococcus aureus [16]) | CC50 at 24 h [18] | other results
CN[C@H](CC(C)C)C(=O)N[C@H]1C(=O)N[C@@H](CC(N)=O)C(=O)N[C@H]2C(=O)N[C@H]3C(=O)N[C@H](C(=O)N[C@H](C(=O)O)c4cc(O)cc(O)c4-c4cc3ccc4O)[C@H](O)c3ccc(c(Cl)c3)Oc3cc2cc(c3O[C@@H]2O[C@H](CO)[C@@H](O)[C@H](O)[C@H]2O[C@H]2C[C@](C)(N)[C@H](O)[C@H](C)O2)Oc2ccc(cc2Cl)[C@H]1O [VANCOMYCIN] | 0.54 µM (≈ 0.783 µg/mL) | 1.08 µM (≈ 1.57 µg/mL) | 1.08 µM (≈ 1.57 µg/mL) | – | – | – | – | – | – | – | – | – | – | – | – | – | LCK (Staphylococcus aureus [3]): 1.18
COC(=O)[C@H](CCCNC(=N)N)NC(=O)COc1c(-c2ccc(OCC=C(C)C)cc2)oc2cc(OCC=C(C)C)cc(OCC(=O)N[C@@H](CCCNC(=N)N)C(=O)OC)c2c1=O | 1.8 µM (≈ 1.58 µg/mL) | 1.8 µM (≈ 1.58 µg/mL) | 1.8 µM (≈ 1.58 µg/mL) | > 228 µM | Active | 3.21 | Active | 12.5 to 25 µg/mL (≈ 14.2 to 28.4 µM) | Active | >=99.9% | 3.22 | 12.5 to 25 µg/mL (≈ 14.2 to 28.4 µM) | Active | Active | <=4 | > 50 µg/mL | viability at 24 h, 32 times MIC [10]: 75%; viability at 24 h, 32 times MIC [15]: 70.1%; Activity (Staphylococcus aureus [17]): 3.28 log10CFU
COC(=O)[C@H](CCCNC(=N)N)NC(=O)COc1c(-c2ccc(OCC=C(C)C)cc2)oc2cc(OCC=C(C)C)cc(O)c2c1=O | 4.8 µM (≈ 3.12 µg/mL) | 2.4 µM (≈ 1.56 µg/mL) | 4.8 µM (≈ 3.12 µg/mL) | 107 µM | Active | 3.19 | Active | inactive | Active | >=99.9% | 3.78 | inactive | Active | Active | <=4 | > 50 µg/mL | viability at 24 h, 16 times MIC [19]: 62.1%; viability at 24 h, 16 times MIC [20]: 67.3%
